Assay results taken from patent publication US10294217B2, “Fluoroindole derivatives as muscarinic M1 receptor positive allosteric modulators” (Suven Life Sciences Limited, priority 2015, dated 2019).
Structures can show the parent of a compound that is named as a salt. Where two headings read alike, the source gives them in different places.

Target: human Muscarinic M1 receptor (Homo sapiens (Human), UniProt P11229)
Experiment: Allosteric potency EC50 for muscarinic M1 receptor (CHO cells, pCRE-Luc reporter)
Format: cell-based
Conditions: luciferase activity, 4 hours
Experimental: Determination of Allosteric Potency EC50 Values for Muscarinic M1 Receptor:
A stable CHO cell line expressing recombinant human Muscarinic M1 receptor and pCRE-Luc reporter system was used for cell-based assay. The assay offers a non-radioactive based approach to determine binding of a compound to GPCRs. In this specific assay, the level of intracellular cyclic AMP which is modulated by activation or inhibition of the receptor is measured. The recombinant cells harbor luciferase reporter gene under the control of cAMP response element.
The above cells were grown in 96 well clear bottom white plates in Hams F12 medium containing 10% fetal bovine serum (FBS). Prior to the addition of compounds or standard agonist, cells were serum starved overnight. Increasing concentrations of test compounds were added along with EC20 of acetylcholine in OptiMEM medium to the cells. The incubation was continued at 37° C. in CO2 incubator for 4 hours. Medium was removed and cells were washed with phosphate buffered saline. The cells were lysed and luciferase activity was measured in a Luminometer. Luminescence units were plotted against the compound concentrations using Graphpad software. EC50 values of the compounds were defined as the concentration required in stimulating the luciferase activity by 50% in presence of EC20 of acetylcholine and the results are provided in table 1.

[1] = hM1 PAM EC50, in presence of EC20 of acetylcholine
[2] = in presence of EC20 of acetylcholine, read-out: hM1 PAM EC50

Compound	EC50 [1]	EC50 [2]
O=C(N[C@H]1CCNC[C@H]1F)c1cn(Cc2ccnc(Cl)c2)c2c(F)ccc(F)c12 (racemic) [Example 28, cis-N-(3-Fluoropiperidin-4-yl)-1-(2-chloropyridin-4-ylmethyl)-4,7-difluoro-1H-indole-3-carboxamide hydrochloride (Racemate)]	1570 nM	–
O=C(N[C@@H]1CCNC[C@H]1F)c1cn(Cc2ccnc(F)c2)c2c(F)ccc(F)c12 (single isomer, unassigned; isomer-i) [Example 24, trans-N-(3-Fluoropiperidin-4-yl)-1-(2-fluoropyridin-4-ylmethyl)-4,7-difluoro-1H-indole-3-carboxamide hydrochloride (Isomer-I)]	1390 nM	–
O=C(N[C@H]1CCNC[C@H]1F)c1cn(Cc2ccncc2F)c2c(F)ccc(F)c12 (single isomer, unassigned; isomer-i) [Example 26, cis-N-(3-Fluoropiperidin-4-yl)-1-(5-fluoropyridin-4-ylmethyl)-4,7-difluoro-1H-indole-3-carboxamide hydrochloride (Isomer-I)]	1100 nM	–
O=C(N[C@H]1CCNC[C@H]1F)c1cn(Cc2ccnc(Cl)c2)c2cccc(F)c12 (single isomer, unassigned; isomer-i) [Example 27, cis-N-(3-Fluoropiperidin-4-yl)-1-(2-chloropyridin-4-ylmethyl)-4-fluoro-1H-indole-3-carboxamide hydrochloride (Isomer-I)]	1690 nM	–
O=C(N[C@H]1CCNC[C@H]1F)c1cn(Cc2ccnc(Cl)c2)c2c(F)ccc(F)c12 (single isomer, unassigned; isomer-i) [Example 29, cis-N-(3-Fluoropiperidin-4-yl)-1-(2-chloropyridin-4-ylmethyl)-4,7-difluoro-1H-indole-3-carboxamide hydrochloride (Isomer-I)]	2920 nM	–
O=C(N[C@H]1CCNC[C@H]1F)c1cn(Cc2ccc(F)cc2)c2c(F)ccc(F)c12 (single isomer, unassigned; isomer-i) [Example 31, cis-N-(3-Fluoropiperidin-4-yl)-1-(4-fluorobenzyl)-4,7-difluoro-1H-indole-3-carboxamide hydrochloride (Isomer-I)]	1610 nM	–
O=C(N[C@H]1CCNC[C@H]1F)c1cn(Cc2ccccc2F)c2cccc(F)c12 (single isomer, unassigned; isomer-i) [Example 33, cis-N-(3-Fluoropiperidin-4-yl)-1-(2-fluorobenzyl)-4-fluoro-1H-indole-3-carboxamide hydrochloride (Isomer-I)]	1370 nM	–
O=C(N[C@H]1CCNC[C@H]1F)c1cn(Cc2ccc(Cl)cc2)c2cccc(F)c12 (single isomer, unassigned; isomer-i) [Example 34, cis-N-(3-Fluoropiperidin-4-yl)-1-(4-chlorobenzyl)-4-fluoro-1H-indole-3-carboxamide hydrochloride (Isomer-I)]	1390 nM	–
COc1ccc(Cn2cc(C(=O)N[C@H]3CCNC[C@H]3F)c3c(F)ccc(F)c32)cc1 (single isomer, unassigned; isomer-i) [Example 39, cis-N-(3-Fluoropiperidin-4-yl)-1-(4-methoxybenzyl)-4,7-difluoro-1H-indole-3-carboxamide hydrochloride (Isomer-I)]	1480 nM	–
O=C(N[C@H]1CCNC[C@H]1F)c1cn(Cc2ccnc(F)c2)c2cccc(F)c12 (single isomer, unassigned; isomer-i) [Example 44, cis-N-(3-Fluoropiperidin-4-yl)-1-(2-fluoropyridin-4-ylmethyl)-4-fluoro-1H-indole-3-carboxamide hydrochloride (Isomer-I)]	1310 nM	–
O=C(N[C@H]1CCNC[C@H]1F)c1cn(Cc2ccc3ncsc3c2)c2cccc(F)c12 (single isomer, unassigned; isomer-i) [Example 45, cis-N-(3-Fluoropiperidin-4-yl)-1-(benzothiazol-6-ylmethyl)-4-fluoro-1H-indole-3-carboxamide hydrochloride (Isomer-I)]	1160 nM	–
O=C(NC1CCNCC1F)c1cn(Cc2ccnc(F)c2)c2c(F)ccc(F)c12 (single isomer, unassigned; isomer-ii) [Example 23, cis-N-(3-Fluoropiperidin-4-yl-1-(2-fluoropyridin-4-ylmethyl)-4,7-difluoro-1H-indole-3-carboxamide hydrochloride (Isomer-II)]	1070 nM	–
O=C(N[C@@H]1CCNC[C@H]1F)c1cn(Cc2ccnc(F)c2)c2c(F)ccc(F)c12 (single isomer, unassigned; isomer-ii) [Example 25, trans-N-(3-Fluoropiperidin-4-yl)-1-(2-fluoropyridin-4-ylmethyl)-4,7-difluoro-1H-indole-3-carboxamide hydrochloride (Isomer-II)]	1440 nM	–
O=C(N[C@H]1CCNC[C@H]1F)c1cn(Cc2ccc(F)cc2)c2c(F)ccc(F)c12 (single isomer, unassigned; isomer-ii) [Example 32, cis-N-(3-Fluoropiperidin-4-yl)-1-(4-fluorobenzyl)-4,7-difluoro-1H-indole-3-carboxamide hydrochloride (Isomer-II)]	1590 nM	–
COc1cccc(Cn2cc(C(=O)N[C@H]3CCNC[C@H]3F)c3c(F)cccc32)c1 (single isomer, unassigned; isomer-ii) [Example 36, cis-N-(3-Fluoropiperidin-4-yl)-4-fluoro-1-(3-methoxybenzyl)-1H-indole-3-carboxamide hydrochloride (Isomer-II)]	1350 nM	–
COc1ccc(Cn2cc(C(=O)N[C@H]3CCNC[C@H]3F)c3c(F)cccc32)cc1 (single isomer, unassigned; isomer-ii) [Example 37, cis-N-(3-Fluoropiperidin-4-yl)-1-(4-methoxybenzyl)-4-fluoro-1H-indole-3-carboxamide hydrochloride (Isomer-II)]	1990 nM	–
Cn1cc(Cn2cc(C(=O)N[C@@H]3CCCC[C@H]3O)c3c(F)cccc32)cn1 [Example 3, N-[(1R,2R)-2-Hydroxycyclohexyl]-1-(1-methyl-1H-pyrazol-4-ylmethyl)-4-fluoro-1H-indole-3-carboxamide]	–	1640 nM
Cn1nc(Cn2cc(C(=O)N[C@H]3CCCC[C@@H]3O)c3c(F)cccc32)c2ccccc21 [Example 4]	–	1490 nM
O=C(N[C@H]1CCCC[C@@H]1O)c1cn(Cc2ccncc2F)c2cccc(F)c12 [Example 9, N-[(1S,2S)-2-Hydroxycyclohexyl]-1-(3-fluoropyridin-4-ylmethyl)-4-fluoro-1H-indole-3-carboxamide]	–	1420 nM
O=C(N[C@H]1CCCC[C@@H]1O)c1cn(Cc2ccnc(F)c2F)c2cccc(F)c12 [Example 13, N-[(1S,2S)-2-Hydroxycyclohexyl]-1-(2,3-difluoropyridin-4-ylmethyl)-4-fluoro-1H-indole-3-carboxamide]	–	1380 nM
O=C(N[C@H]1CCCC[C@@H]1O)c1cn(Cc2ccc3ncsc3c2)c2cccc(F)c12 [Example 18, N-[(1S,2S)-2-Hydroxycyclohexyl]-1-(benzothiazol-6-ylmethyl)-4-fluoro-1H-indole-3-carboxamide]	–	160 nM
O=C(N[C@H]1CCCC[C@@H]1O)c1cn(Cc2cnn(CCF)c2)c2cccc(F)c12 [Example 19, N-[(1S,2S)-2-Hydroxycyclohexyl]-1-(1-(2-fluoroethyl)-1H-pyrazol-4-ylmethyl)-4-fluoro-1H-indole-3-carboxamide]	–	744 nM
